Key:
[1] = Example 15: release of nicotine from NPR (16%) with 1 equivalent of AlCl3 or MgO in water, 28 mg/L nicotine, 25 degrees Celsius, 150 rpm, HPLC; format: physicochemical; conditions: 1 equivalent of MgO; release from NPR (16%)
Protocol: The temperature of the water was 25 degrees Celsius throughout the experiment and stirring of 150 rpm was applied throughout the experiment. pH was measured at experiment start and end.
(§1) A relative low nicotine concentration is used in order to reduce the impact of equilibrium on both the release rate and effective release of nicotine from the ion-exchange resin.
Samples were taken out at varying timepoints and analyzed for nicotine content using standard HPLC. The result is presented as percentage of nicotine released.

[2] = 25 degrees Celsius, atmospheric pressure and pH 7.0; cited from earlier work
[3] = compared with CaCl2; release from NPR (16%)
Protocol: The temperature of the water was 25 degrees Celsius throughout the experiment and stirring of 100 rpm was applied throughout the experiment. pH was measured at experiment start and end.
as §1
Samples were taken out at varying timepoints and analyzed for nicotine content using standard HPLC. The results are presented as percentage of nicotine released.

Structure (SMILES) | Effect of the presence of MgO on release of nicotine [1] | water-solubility [2] | Effect of NaCl on the release of nicotine [3]
[Mg+2].[O-2] [MgO] | does not increase the release of nicotine | below 5 grams per 100 mL of water | 
[Cl-].[Na+] [NaCl] |  |  | much lower effect on the release of nicotine

— patent publication US11911375B2, “Solid oral nicotine formulation” (Fertin Pharma A/S, priority 2020, dated 2024)
